Earlier results in US9801891B2, “Compositions and methods for lowering intraocular pressure” (ALLERGAN, INC., priority 2009, dated 2017).

Test system: alpha-2 adrenoceptor

Which “Selectivity for the alpha-2 adrenoceptor over the alpha-1 adrenoreceptor” value does the source give for `Brc1c(N=C2NCCN2)ccc2nccnc12.O=C(O)C(O)C(O)C(=O)O` [Brimonidine tartrate, 5-bromo-6-(2-imidazolidinylideneamino) quinoxaline L-tartrate] here?
The value was 1000 fold.
